Results taken from patent publication US8828678B2, “Self-immolative probes for enzyme activity detection” (Enzo Life Sciences, Inc., priority 2010, dated 2014).

Legend:
[1] = test system: hypoxic HeLa cells; test: Detection of hypoxia with hypoxia markers using fluorescence microscopy; format: cell-based, human; details: 5 μM, 3.5 h, chemical induction of hypoxia (CoCl2, DFO, DMOG) or anoxic treatment, FITC filter
Procedure: The human cervical adenocarcinoma epithelial cell line HeLa, U-2 OS human bone osteosarcoma cell line and hamster ovary CHO K1 cell line were obtained from ATTC. HeLa cells were routinely cultured in Eagle's Minimum Essential Medium with low glucose (ATCC), supplemented with 10% fetal bovine serum (ATCC) and 100 U/ml penicillin, 100 μg/ml streptomycin (Sigma-Aldrich, St. Louis, Mo.). U-2 OS cells were routinely cultured in McCoy's 5a Modified Medium (ATCC), supplemented with 10% fetal bovine serum heat (ATCC) and 100 U/ml penicillin+100 μg/ml streptomycin (Sigma-Aldrich). […]
The day before the experiment, the cells were seeded on 4-well microscope slides (Cel-Line™ Brand, Portsmouth, N.H.) at a density 1×10^4 cells/well (2×10^4 cells/cm^2). […] Post-treatment, the slides were washed twice with PBS, coverslipped and visualized using an Olympus BX-51 fluorescence microscope (FITC filter set, 490ex/525em).
In parallel, the hypoxia cellular state was detected using the hypoxia detecting reagent pimonidazole (Varia et al., 1998; Young, 1977). […] Slides were stained with a 1:100 dilution of FITC-MAb1 against pimonidazole (HP-1 kit from Hypoxyprobe) for 45 min at 4° C., washed twice with PBS, coverslipped and visualized using an Olympus BX-51 fluorescence microscope equipped with an FITC filter set (490ex/525em). […]

[2] = test system: HeLa cells; test: Combined detection of hypoxia and redox status in live cells by fluorescent microscopy; format: cell-based, human; details: 5 μM; all four hypoxic samples (anoxia, CoCl2, DFO, DMOG)
Procedure: HeLa and U-2 OS cells were cultured as described in Example 7. Stock solutions of CD-1 and CD-5 and various hypoxia inducers were prepared and stored as described in Examples 7 and 8. Additionally, 5 mM stock solutions (5000×) of 2′,7′-dichloro-fluorescein diacetate (DCFDA, an indicator of global ROS generation) and dihydroethidium (DHE, specific indicator of superoxide generation) were made in anhydrous DMF. DMSO was avoided, since this solvent is a hydroxyl radical scavenger and its presence may affect ROS/RNS production in cellular systems. The following stocks of ROS inducers were prepared in DMF: 10 mM pyocyanin (general ROS generating compound, 100×), 20 mM antimycin A (general ROS inducer, 400×), 50 mM pyrogallol (a superoxide radical generator, 1000×), 1 mM t-butyl hydroperoxide (TBHP, peroxide radical inducer, 10,000×). ROS probes and inducers were aliquoted and stored at −80° C.
The day before the experiment, the cells were seeded on 4-well microscope slides (Cel-Line™ Brand, Portsmouth, N.H.) at a density 1×10^4 cells/well (2×10^4 cells/cm^2). On the day of the experiment, the cells were preloaded with both hypoxia probe (5 μM final concentration in cell culture medium) and ROS detecting reagent with suitable spectral characteristics. Two ROS-detecting probes, DCFDA and DHE, were used in a pilot experiment in conjunction with hypoxia self-immolative probes. The hydrolyzed product of DCFDA, DCFH, is considered to be a general indicator of ROS, reacting with H2O2 (in the presence of peroxidases), ONOO^−, lipid hydroperoxides, and hydroxyl radicals. The oxidized product can be detected by strong fluorescence emission at around 525 nm when excited at around 488 nm. Because H2O2 is a secondary product of O2.^−, DCFH fluorescence has been used to implicate O2.^− production. The direct reaction of DHE with O2.^− yields a very specific fluorescent product, requiring no conversion to H2O2. The product of the DHE reaction with O2.^− fluoresces strongly at around 600 nm when excited at 500-530 nm.
Tested pairs of the probes were as follows: CD-5 with DCFDA or DHE, and CD-1 with DHE. A hypoxic state was induced in the cells as described in Example 7. Control slides were singly-stained with hypoxia or ROS-detecting probes only. Additional slides were treated with different general and specific ROS inducers and stained with ROS-detecting probes to control ROS staining. Post-treatment, the slides were washed twice with PBS, coverslipped and visualized using an Olympus BX-51 fluorescence microscope and a DAPI filter set (350 ex/470em) for CD-5, an FITC filter set (490ex/525em) for CD-1 or for total ROS detection reagent, and an orange filter set (550ex/620em) for HE.

## O=C(Nc1ccc2c(c1)Oc1cc(NC(=O)N3CCOCC3)ccc1C21OC(=O)c2ccccc21)OCc1ccc([N+](=O)[O-])cc1 (centres unmarked) [CD-1]
[1]
  fluorescence signal in hypoxic HeLa cells: bright fluorescence signal
[2]
  hypoxia probe fluorescent signal in hypoxic HeLa cells, multiplexed with ROS dyes: bright fluorescent signal
